Assay results: patent US20060142323A1, “Dual binding site acetylcholinesterase inhibitors for the treatment of alzheimer's disease” (priority 2002, published 2006)

Tests used:
AChE peripheral site = AChE peripheral site (Homo sapiens, UniProt P22303); assay: Propidium competition (fluorescence); assay type: binding; conditions: 20 μM propidium iodide, AChE incubated at least 6 hours with compound
Description: Fluorescence was measured in a Fluostar optima plate reader (BMG). Measurements were carried out in 100 μl solution volume, in 96-well plates. The buffer used was 1 mM Tris/HCl, pH 8.0. […] AChE was incubated, at least 6 hours, with the molecules at different concentrations. 20 μM propidium iodide was added 10 min before fluorescence measurement.

[1] = target: T1, AChE from bovine erythrocytes (Bos taurus, UniProt P23795); assay: Acetylcholinesterase (AChE) inhibition (from bovine erythrocytes), Ellman method at 30° C., Digiscan 340T; assay type: biochemical; conditions: bovine erythrocytes AChE, 30° C., 5 min preincubation; read-out: IC50 AchE
T1 construct: 0.02 units AChE (Sigma Chemical Co. from bovine erythrocytes); purchased Sigma Chemical Co; host or cells: bovine erythrocytes
T1 sequence (P23795 31-614 isoform P23795-2 limits assumed): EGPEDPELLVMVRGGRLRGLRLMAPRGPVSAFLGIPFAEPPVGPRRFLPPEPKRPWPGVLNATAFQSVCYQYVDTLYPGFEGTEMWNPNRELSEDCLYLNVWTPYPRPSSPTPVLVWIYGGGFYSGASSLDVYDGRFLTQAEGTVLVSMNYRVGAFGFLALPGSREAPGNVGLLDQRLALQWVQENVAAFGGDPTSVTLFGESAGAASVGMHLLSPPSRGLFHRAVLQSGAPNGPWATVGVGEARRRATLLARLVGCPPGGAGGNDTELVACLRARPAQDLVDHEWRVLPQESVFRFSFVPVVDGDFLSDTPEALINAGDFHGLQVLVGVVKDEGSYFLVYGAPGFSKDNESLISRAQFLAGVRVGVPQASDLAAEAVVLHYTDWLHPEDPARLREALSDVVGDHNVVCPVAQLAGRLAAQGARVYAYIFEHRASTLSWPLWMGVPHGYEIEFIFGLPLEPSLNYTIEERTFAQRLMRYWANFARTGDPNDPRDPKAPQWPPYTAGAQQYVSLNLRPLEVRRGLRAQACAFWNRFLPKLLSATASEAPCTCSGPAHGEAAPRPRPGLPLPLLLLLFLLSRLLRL
Description: Acetylcholinesterase (AChE) Inhibition (from Bovine Erythrocytes)
AChE inhibitory activity was evaluated at 30° C. by the colorimetric method reported by Ellman [Ellman, G. L.; Courtney, K. D.; Andres, B.; Featherstone, R. M. Biochem. Pharmacol. 1961, 7, 88-95]. The assay solution consisted of 0.1 M phosphate buffer pH 8, 0.3 mM 5,5′-dithiobis (2-nitrobenzoic acid) (DTNB, Ellman's reagent), 0.02 units AChE (Sigma Chemical Co. from bovine erythrocytes), and 0.5 mM acetylthiocholine iodide as the substrate of the enzymatic reaction. The compounds tested were added to the assay solution and preincubated with the enzyme for 5 min at 30° C. After that period, the substrate was added. The absorbance changes at 405 nm were recorded for 5 min with a microplate reader Digiscan 340T, the reaction rates were compared, and the percent inhibition due to the presence of test compounds was calculated. The reaction rate was calculated with, at least, triplicate measurements, and the percent inhibition due to the presence of test compound was calculated relative to the compound-free control.

[2] = tested on: SH—SY5Y cells exposed to H2O2; assay: Antioxidant activity (H2O2 exposure, LDH viability); assay type: cell-based, human; conditions: 1 hour pretreatment, 24 hours H2O2, LDH
Description: In order to evaluate if these compounds have antioxidant properties cells SH—SY5Y were exposed 24 hours to […] H2O2, previously these cells were pretreated for 1 hour with the molecules at different concentrations (from 10^−5 to 10^−9). The antioxidant activity is evaluated measuring cellular viability, using the LDH assay. Cells SH—SY5Y were cultured in 96-well plates as toxicity experiments.

[3] = tested on: human neuroblastoma cell line SH—SY5Y; assay: Toxicity measurement (LDH) in SH-SY5Y cells; assay type: cell-based; conditions: 24 hours exposure
Description: The cytotoxicity effect of the molecules was tested in the human neuroblastoma cell line SH—SY5Y. These cells were cultured in 96-well plates in minimum essential medium, Han's F12 medium, supplemented with 10% fetal bovine serum, 1% glutamine and 1% penicillin/streptomycin, and grown in. a 5% CO2 humidified incubator at 37° C.
The cells were plated at 10^4 cells for each well, at least, 48 hours before the toxicity measure. Cells were exposed for 24 hours to the compounds at different concentrations (from 10^−5 to 10^−9), quantitative assessment of cell death was made by measurement of the intracellular enzyme lactate dehydrogenase (LDH) (citotoxicity detection kit, Roche). The cuantity of LDH was evaluated in a microplate reader Anthos 2010, at 492 and 620 nm. Controls were taken as 100% viability.

BuChE from human serum = target: T2, BuChE from human serum (Homo sapiens, UniProt P06276); assay: Butyrylcholinesterase (BuChE) inhibition (from human serum); assay type: biochemical; conditions: human serum BuChE, 30° C., 10 min preincubation; read-out: IC50 BuChE
T2 construct: The assay solution consisted of 0.01 units BuChE from human serum; from tissue; host or cells: human serum
Description: Butyrylcholinetersae (BuChE) Inhibition (from Human Serum)
BuChE inhibitory activity was evaluated at 30° C. by the colorimetric method reported by Ellman (Ellman, G. L.; Courtney, K. D.; Andres, B.; Featherstone, R. M. Biochem. Pharmacol. 1961, 7, 88-95]. The assay solution consisted of 0.01 units BuChE from human serum, 0.1 M sodium phosphate buffer pH 8, 0.3 mM 5,5′-dithiobis (2-nitrobenzoic acid) (DTNB, Ellman's reagent), and 0.5 mM butylthiocholine iodide as the substrate of the enzymatic reaction. Enzyme activity was determined by measuring the absorbance at 405 nm during 5 minutes with a microplate reader Digiscan 340T. The tested compounds were preincubated with the enzyme for 10 minutes at 30° C. The reaction rate was calculated with, at least, triplicate measurements.

T2 sequence (P06276 29-602): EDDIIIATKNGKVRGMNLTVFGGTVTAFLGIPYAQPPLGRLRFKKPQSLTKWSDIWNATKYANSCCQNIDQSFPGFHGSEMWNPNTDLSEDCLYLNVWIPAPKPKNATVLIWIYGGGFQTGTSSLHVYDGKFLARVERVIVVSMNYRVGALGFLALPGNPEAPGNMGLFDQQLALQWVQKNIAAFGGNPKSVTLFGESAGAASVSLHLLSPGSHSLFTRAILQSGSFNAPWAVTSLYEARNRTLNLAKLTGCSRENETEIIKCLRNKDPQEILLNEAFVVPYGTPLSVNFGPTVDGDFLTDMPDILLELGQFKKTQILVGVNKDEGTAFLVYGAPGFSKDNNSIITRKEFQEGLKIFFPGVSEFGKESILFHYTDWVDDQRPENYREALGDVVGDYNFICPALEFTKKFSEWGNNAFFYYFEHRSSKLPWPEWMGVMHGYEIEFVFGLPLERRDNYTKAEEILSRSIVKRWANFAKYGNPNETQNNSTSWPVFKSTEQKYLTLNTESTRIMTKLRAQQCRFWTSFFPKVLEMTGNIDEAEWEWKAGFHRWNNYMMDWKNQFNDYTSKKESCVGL
AChE peripheral site, sequence (P22303 32-614): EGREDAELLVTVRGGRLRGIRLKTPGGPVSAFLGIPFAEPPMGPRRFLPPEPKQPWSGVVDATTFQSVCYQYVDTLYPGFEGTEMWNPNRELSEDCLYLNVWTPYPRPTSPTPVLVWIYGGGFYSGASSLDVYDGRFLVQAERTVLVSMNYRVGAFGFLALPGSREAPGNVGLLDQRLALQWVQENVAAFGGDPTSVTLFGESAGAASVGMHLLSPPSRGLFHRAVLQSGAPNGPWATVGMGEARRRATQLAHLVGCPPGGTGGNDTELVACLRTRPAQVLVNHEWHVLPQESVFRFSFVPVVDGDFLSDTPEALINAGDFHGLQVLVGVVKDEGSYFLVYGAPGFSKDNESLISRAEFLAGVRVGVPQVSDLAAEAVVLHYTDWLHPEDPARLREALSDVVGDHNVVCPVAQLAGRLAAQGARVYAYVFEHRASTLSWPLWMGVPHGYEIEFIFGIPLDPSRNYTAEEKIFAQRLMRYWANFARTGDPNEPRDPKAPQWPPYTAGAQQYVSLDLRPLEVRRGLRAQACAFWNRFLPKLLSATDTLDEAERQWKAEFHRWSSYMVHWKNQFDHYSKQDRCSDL

SMILES: CN(CCCNc1c2c(nc3ccccc13)CCCC2)CCCNc1c2ccccc2nc2ccccc12 [Compound 21]
- Propidium competition (AChE peripheral site): 1000 µM
- IC50 [1]: 0.004 µM
- Antioxidant activity [2]: 10 µM
- Toxicity [3]: >100 µM
- IC50 (BuChE from human serum): 0.07 µM
